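All cell lines were grown in 96-well plates and treated with compound for 48 hours. Abbreviation: GI50, concentration required for 50% inhibition of growth. The concentration for full growth arrest is given as TGI.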
Experiments:
Test in all cases: DTP human tumour cell line panel, 48 h
[1] = system: UACC-257 melanoma
[2] = system: SNB-19 CNS
[3] = system: NCI-H460 lung
[4] = system: M14 melanoma
[5] = system: DU-145 prostate
[6] = system: HCT-116 colon
[7] = system: U251 CNS
[8] = system: CAKI-1 renal
[9] = system: TK-10 renal
[10] = system: NCI-H522 lung

| Structure (SMILES) | GI50 [1] [µM] | TGI [1] [µM] | GI50 [2] [µM] | TGI [2] [µM] | GI50 [3] [µM] | TGI [3] [µM] | GI50 [4] [µM] | TGI [4] [µM] | GI50 [5] [µM] | TGI [5] [µM] | GI50 [6] [µM] | TGI [6] [µM] | GI50 [7] [µM] | TGI [7] [µM] | GI50 [8] [µM] | TGI [8] [µM] | GI50 [9] [µM] | TGI [9] [µM] | GI50 [10] [µM] | TGI [10] [µM] |
| --- | --- | --- | --- | --- | --- | --- | --- | --- | --- | --- | --- | --- | --- | --- | --- | --- | --- | --- | --- | --- |
| Cc1c(Sc2ccccc2)[n+](=O)c2cc(Cl)c(Cl)cc2n1[O-] | 16 | 44.6 | > 100 | > 100 | > 100 | > 100 | 46.8 | > 100 | 23.4 | 44.8 | 27.4 | 59.4 | > 100 | > 100 | 42 | > 100 | 26.1 | 70.6 | 23.6 | 57.7 |
| O=[N+]([O-])c1ccc(S(=O)(=O)Cc2ccccc2)c2nonc12 | – | 30.1 | – | > 100 | – | 37.8 | – | 31.2 | – | 36.3 | – | 31.8 | – | 36.1 | – | 38.2 | – | 32 | – | 38 |
| CN1C(Cl)=NS(=O)(=O)c2ccccc21 | – | > 100 | – | > 100 | – | > 100 | – | > 100 | – | > 100 | – | > 100 | – | > 100 | – | 36.6 | – | > 100 | – | > 100 |
| CCc1nc(N)nc(N)c1-c1ccc(Cl)c(N=CN(C)C)c1 | – | > 100 | – | > 89.3 | – | > 95.2 | – | > 100 | – | > 100 | – | > 100 | – | > 100 | – | > 100 | – | > 100 | – | 62.7 |
| O=C1OC(c2ccccc2)=N/C1=C\c1cccc(F)c1 | – | 88.2 | – | > 100 | – | > 100 | – | > 100 | – | > 100 | – | > 100 | – | > 100 | – | > 100 | – | > 100 | – | 40.1 |
| CCOC(=O)c1c(C)c(C)n2c1NC(=O)C2 | – | > 100 | – | > 100 | – | > 100 | – | > 100 | – | 64.3 | – | > 100 | – | 97.7 | – | > 100 | – | > 89.4 | – | > 68 |
| ClCc1ccc(Cn2cnc3c(Cl)nc(Cl)nc32)cc1 | 16.3 | 33.5 | 2.5 | 7.04 | 2.39 | 4.92 | 10.8 | 24.1 | 5.69 | 17.8 | 1.72 | 3.6 | 2.05 | 3.88 | 9.17 | 21.3 | 6.68 | 20.3 | 22.4 | 46.8 |
| Cn1c(=O)c(Oc2ccc(F)cc2F)cc2cnc(NCCS(C)(=O)=O)nc21 | > 25 | > 25 | > 25 | > 25 | > 25 | > 25 | > 25 | > 25 | > 25 | > 25 | > 25 | > 25 | > 25 | > 25 | > 25 | > 25 | > 25 | > 25 | > 25 | > 25 |
| COc1cc2c(c(OC3OC(CO)C(O)C(O)C3O)c1)C(=O)CC(c1ccc(O)cc1)O2 (stereo not given) | – | > 100 | – | > 100 | – | > 100 | – | > 100 | – | > 100 | – | > 100 | – | > 100 | – | > 100 | – | > 100 | – | > 100 |
| COc1ccc(-c2nn(-c3cccc(NC(=O)c4ccc(N5CCOCC5)c(C(F)(F)F)c4)c3)cc2-c2ccncc2)cc1Cl | > 50 | > 50 | 46.8 | > 50 | 5.23 | > 50 | 4.54 | 38.1 | > 50 | > 50 | 3.74 | > 50 | 1.14 | > 50 | 3.64 | > 50 | > 50 | > 50 | 2.77 | 34.4 |
| C=C1c2c(Cl)ccc(O)c2C(O)=C2C(=O)[C@]3(O)C(O)=C(C(N)=O)C(=O)[C@@H](N(C)C)[C@@H]3[C@@H](O)[C@H]12 | 0.888 | 3.61 | 1.44 | > 50 | 1.17 | 7.54 | 1.32 | 5.79 | 1.62 | 9.15 | 0.97 | 3.22 | 0.949 | 4.09 | 0.499 | 3.4 | 0.656 | 3.41 | 1.01 | 3.06 |
| Cn1cnc([N+](=O)[O-])c1Sc1ncn[nH]1 | 68.2 | > 100 | > 100 | > 100 | > 100 | > 100 | > 100 | > 100 | 63.4 | > 100 | > 100 | > 100 | > 100 | > 100 | 30.7 | > 100 | 98.2 | > 100 | 19.8 | > 100 |
| CCN(CC)CCOc1ccc(C(=O)/C=C\c2ccc(Cl)cc2Cl)cc1 | 4.51 | 15.2 | 6.81 | 24.4 | 11.1 | 26.1 | 2.17 | 5 | 10.3 | 22 | 1.56 | 3.31 | 7.16 | 21.3 | 10.5 | 22.3 | 15.6 | 29.2 | 15.2 | 35.6 |
| O=C1OC(CN2CCOCC2)CN1/N=C/c1ccc([N+](=O)[O-])o1 (stereo not given) | – | > 100 | – | > 100 | – | > 100 | – | 45.6 | – | > 100 | – | 39.3 | – | 98.6 | – | > 100 | – | > 100 | – | 72.3 |
| C=C1[C@@H]([C@@]2(C)C=CC(=O)C(C)(C)[C@@H]2CC(=O)OC)CC[C@@]2(C)C(c3ccoc3)OC(=O)[C@H]3O[C@]132 (stereo not given in full) | – | > 100 | – | > 100 | – | > 100 | – | > 100 | – | > 100 | – | > 100 | – | > 100 | – | > 100 | – | > 100 | – | > 100 |
| CC(C)CCN[C@@H]1CCc2cc(O)c(N3CC(=O)NS3(=O)=O)c(F)c2C1 | > 100 | > 100 | > 100 | > 100 | > 100 | > 100 | > 100 | > 100 | > 100 | > 100 | > 100 | > 100 | > 100 | > 100 | 3.41 | > 100 | > 100 | > 100 | > 100 | > 100 |

Reference: PubChem BioAssay (NCI)
